Source: patent US10875876B2, “Cyclized sulfamoylarylamide derivatives and the use thereof as medicaments for the treatment of hepatitis B” (priority 2015, dated 2020)
Where two headings read alike, the source gives them in different places.

Tests used:
[1] = from C=CCCCCC(C)NS(=O)(=O)c1cn(C)c(C(=O)OC)c1CC=C; rcm bond; Grubbs catalyst 2nd generation; DCE; 3.4 mM; 80.0 °C; 2.0 h
[2] = test system: HBV; assay: anti HBV activity, HepG2.117 cell line, intracellular HBV DNA by realtime PCR; format: cell-based; conditions: HepG2.117 cell line (Tet-off), 3 days of treatment, intracellular HBV DNA quantified by realtime PCR; read-out: HBV-AVE-HepG2.117 EC50
In short: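 HepG2.117 cells, a Tet-off line that replicates HBV without doxycycline, were induced and then treated in duplicate with serially diluted compound. After 3 days, intracellular HBV DNA was quantified by real-time PCR with an HBV-specific primer set and probe.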

[3] = test system: HepG2 cells
[4] = test system: HepG2 cells; assay: Cytotoxicity in HepG2 cells, Resazurin assay; conditions: read-out: TOX-HepG2-4 d CC50; HepG2 cells incubated for 4 days, viability by Resazurin assay

Row | Compound | ring closure, yield of all isomers [1] [%] | EC50 [2] [nM] | CC50 [3] [µM] | CC50 [4] [µM]
1 | COC(=O)c1c2c(cn1C)S(=O)(=O)NC(C)CCCC/C=C\C2 (stereo not shown) | 61.1 | – | – | –
2 | C[C@@H](N1CCCCc2c(cn(C)c2C(=O)Nc2ccc(F)c(F)c2)S1(=O)=O)C(F)(F)F [Compound 4, N-(3,4-difluorophenyl)-8-methyl-1,1-dioxo-2-[(1R)-2,2,2-trifluoro-1-methyl-ethyl]-3,4,5,6-tetrahydropyrrolo[3,4-g]thiazocine-7-carboxamide] | – | 1090 | > 25 | –
3 | Cn1cc2c(c1C(=O)Nc1ccc(F)c(C(F)F)c1)OC[C@H](C(O)C1CC1)NS2(=O)=O (stereo partly drawn) [Compound 115b, (3R)-3-[cyclopropyl(hydroxy)methyl]-N-[3-(difluoromethyl)-4-fluoro-phenyl]-7-methyl-1,1-dioxo-3,4-dihydro-2H-pyrrolo[3,4-b][1,4,5]oxathiazepine-6-carboxamide] | – | 7 | – | > 25
4 | CC(C)C(O)C1COc2c(cn(C)c2C(=O)Nc2ccc(F)c(C#N)c2)S(=O)(=O)N1 (stereo not shown) [Compound 119b, N-(3-cyano-4-fluoro-phenyl)-3-(1-hydroxy-2-methyl-propyl)-7-methyl-1,1-dioxo-3,4-dihydro-2H-pyrrolo[3,4-b][1,4,5]oxathiazepine-6-carboxamide] | – | 6 | – | > 25
5 | Cn1cc2c(c1C(=O)Nc1ccc(F)c(C#N)c1)OC[C@H](C(O)C1CC1)NS2(=O)=O (stereo partly drawn) [Compound 120b, (3R)—N-(3-cyano-4-fluoro-phenyl)-3-[cyclopropyl(hydroxy)methyl]-7-methyl-1,1-dioxo-3,4-dihydro-2H-pyrrolo[3,4-b][1,4,5]oxathiazepine-6-carboxamide] | – | 11 | – | > 25
6 | CCC(O)[C@H]1COc2c(cn(C)c2C(=O)Nc2ccc(F)c(C#N)c2)S(=O)(=O)N1 (stereo partly drawn) [Compound 122b, (3R)—N-(3-cyano-4-fluoro-phenyl)-3-(1-hydroxypropyl)-7-methyl-1,1-dioxo-3,4-dihydro-2H-pyrrolo[3,4-b][1,4,5]oxathiazepine-6-carboxamide] | – | 9 | – | > 25
7 | CCC(O)[C@H]1COc2c(cn(C)c2C(=O)Nc2ccc(F)c(C(F)F)c2)S(=O)(=O)N1 (stereo partly drawn) [Compound 124b, (3R)—N-[3-(difluoromethyl)-4-fluoro-phenyl]-3-(1-hydroxypropyl)-7-methyl-1,1-dioxo-3,4-dihydro-2H-pyrrolo[3,4-b][1,4,5]oxathiazepine-6-carboxamide] | – | 4 | – | > 25
8 | CCC(O)[C@H]1COc2c(cn(C)c2C(=O)Nc2ccc(F)c(F)c2)S(=O)(=O)N1 (stereo partly drawn) [Compound 130b, (3R)—N-(3,4-difluorophenyl)-3-(1-hydroxypropyl)-7-methyl-1,1-dioxo-3,4-dihydro-2H-pyrrolo[3,4-b][1,4,5]oxathiazepine-6-carboxamide] | – | 12 | – | > 25
9 | C[C@@H]1NS(=O)(=O)c2cn(C)c(C(=O)Nc3ccc(F)c(F)c3)c2O[C@@H]1C [compound 228] | – | > 500 | – | > 25
10 | C[C@@H]1Oc2c(cn(C)c2C(=O)Nc2ccc(F)c(C#N)c2)S(=O)(=O)N[C@@H]1CO [compound 235] | – | > 500 | – | > 25
11 | C[C@@H]1Oc2c(cn(C)c2C(=O)Nc2ccnc(Br)c2)S(=O)(=O)N[C@@H]1CO [compound 236] | – | 340 | – | > 25
12 | Cn1cc2c(c1C(=O)Nc1ccc(F)c(F)c1)O[C@@H](C(F)(F)F)[C@H](CO)NS2(=O)=O [compound 244] | – | > 500 | – | > 25
13 | CC1CCn2c(C(=O)Nc3ccc(F)c(F)c3)nc(Br)c2S(=O)(=O)N1 (stereo not shown) [compound 245] | – | > 25000 | – | > 25
